# Assay results reported in patent US20110190345A1, “Treatment of Psychosis with a 5HT2A Antagonist and a Metabotropic Glutamate Receptor Agonist or Potentiator” (priority 2007, published 2011).
# What was measured:
# Assay type in all cases: in vivo, rat
# [1] = test system: Male Wistar rats; test: Ketamine-induced psychomotor activity (locomotor activity, total distance traveled); settings: mGluR2/3 agonist 1 mpk; for whether ketamine increased psychomotor activity (locomotor response): FIG. 2, first 60 minutes after ketamine or saline, 5-HT2a antagonist 0.2 mpk
# Text: (§1) Compounds with antipsychotic efficacy are known to block Ketamine-induced psychomotor activity in rats (Bardi et al., Behavioural Pharmacology (2007), 18(2), 103-118). Male Wistar rats were received on site and housed for 7 days with food and water ad libitum. On the day of testing, animals were given vehicle (water for mGluR2/3 agonist, 1% Tween for 5-HT2A antagonist), the 5-HT2A antagonist volinanserin (0.2 mpk), the mGluR2/3 agonist (−)-2-oxa-4-aminobicyclo[3.1.0]hexane-4,6-dicarboxylate (1 mpk), or both the 5-HT2A antagonist (0.2 mpk) and the mGluR2/3 agonist (1 mpk) and placed in locomotor activity monitors. Thirty minutes later animals received a subcutaneous injection of saline or 37.5 mg/kg Ketamine and placed back into the'locomotor activity monitors for 90 minutes. Total distance traveled was used to assess locomotor behavior. The distance traveled is summed over the ninety minutes after ketamine or saline treatment.
# Similarly, locomotor response was determined over the first 60 minutes after receiving ketamine or saline as a function of treatment with vehicle, the 5-HT2a antagonist (0.2 mpk), the mGluR2/3 agonist (1 mpk), or the 5-HT2a antagonist (0.2 mpk)+the mGluR2/3 agonist (1 mpk).
# [2] = test system: Male Wistar rats; test: MK-801-induced psychomotor activity (locomotor activity, total distance traveled); settings: 5-HT2A antagonist 0.2 mpk, mGluR2/3 agonist 1 mpk; for reduction of the response to MK-801: 90 minutes after 0.2 mg/kg s.c. MK-801; for psychomotor activity, total distance traveled after MK-801: summed over 90 minutes after 0.2 mg/kg s.c. MK-801, control≃200 cm, MK-801 alone≃2000 cm
# Experimental: Male Wistar rats were received on site and housed for 7 days with food and water ad libitum. […] Thirty minutes later animals received a subcutaneous injection of saline or 0.2 mg/kg MK-801 and were placed back into the locomotor activity monitors for 90 minutes. Total distance traveled was used to assess locomotor behavior. The distance traveled is summed over the ninety minutes after MK-801 or saline treatment.
# [3] = test system: Male Wistar rats; test: Amphetamine-induced psychomotor activity (locomotor activity, total distance traveled); settings: FIG. 3; summed over 90 minutes after 1.5 mg/kg s.c. amphetamine; 5-HT2a antagonist 0.2 mpk, mGluR2/3 agonist 1 mpk
# Text: as §1, with “amphetamine-induced” for “Ketamine-induced”, “1.5” for “37.5”, “amphetamine” for “Ketamine”, “the locomotor” for “the'locomotor”, “amphetamine” for “ketamine”
SMILES,whether ketamine increased psychomotor activity (locomotor response) [1],reduction of the response to MK-801 [2],"psychomotor activity, total distance traveled after MK-801 [2]",influence on amphetamine-induced psychomotor activity [3],"response to ketamine (psychomotor activity, distance traveled) relative to the 0-0-Ketamine group ([1]; FIG. 1, summed over 90 minutes after 37.5 mg/kg s.c. ketamine, 5-HT2A antagonist 0.2 mpk, given 30 min before)"
"COc1cccc([C@H](O)C2CCN(CCc3ccc(F)cc3)CC2)c1OC [5-HT2A antagonist, (+)-alpha-(2,3-dimethoxyphenyl)-1-[2-(4 fluorophenyl)ethyl]-4-piperidine methanol]",ketamine increased psychomotor activity,Neither the mGluR2/3 agonist nor the 5-HT2A antagonist given alone reduced the response to MK-801,~2500 cm,did not influence amphetamine-induced psychomotor activity,
"NC1(C(=O)O)COC2C(C(=O)O)C21 (single isomer, unassigned; (-)) [mGluR2/3 agonist, (−)-2-oxa-4-aminobicyclo[3.1.0]hexane-4,6-dicarboxylate]",ketamine increased psychomotor activity,Neither the mGluR2/3 agonist nor the 5-HT2A antagonist given alone reduced the response to MK-801,~1900 cm,did not influence amphetamine-induced psychomotor activity,decreased the response to ketamine
